These results are taken from US20260167614A1, “IDENTIFICATION OF SMALL MOLECULES THAT RECRUIT AND ACTIVATE RNASE L” (UNIVERSITY OF FLORIDA RESEARCH FOUNDATION, INCORPORATED, priority 2022, published 2026).

The target of assay [1] is T1, pre-miR-21 and RNase L (Homo sapiens, UniProt Q05823, H672N).
T1 construct: GST (N, cleaved yes); made in house; host or cells: BL21 AI Escherichia coli
T1 sequence (Q05823 1-741 H672N): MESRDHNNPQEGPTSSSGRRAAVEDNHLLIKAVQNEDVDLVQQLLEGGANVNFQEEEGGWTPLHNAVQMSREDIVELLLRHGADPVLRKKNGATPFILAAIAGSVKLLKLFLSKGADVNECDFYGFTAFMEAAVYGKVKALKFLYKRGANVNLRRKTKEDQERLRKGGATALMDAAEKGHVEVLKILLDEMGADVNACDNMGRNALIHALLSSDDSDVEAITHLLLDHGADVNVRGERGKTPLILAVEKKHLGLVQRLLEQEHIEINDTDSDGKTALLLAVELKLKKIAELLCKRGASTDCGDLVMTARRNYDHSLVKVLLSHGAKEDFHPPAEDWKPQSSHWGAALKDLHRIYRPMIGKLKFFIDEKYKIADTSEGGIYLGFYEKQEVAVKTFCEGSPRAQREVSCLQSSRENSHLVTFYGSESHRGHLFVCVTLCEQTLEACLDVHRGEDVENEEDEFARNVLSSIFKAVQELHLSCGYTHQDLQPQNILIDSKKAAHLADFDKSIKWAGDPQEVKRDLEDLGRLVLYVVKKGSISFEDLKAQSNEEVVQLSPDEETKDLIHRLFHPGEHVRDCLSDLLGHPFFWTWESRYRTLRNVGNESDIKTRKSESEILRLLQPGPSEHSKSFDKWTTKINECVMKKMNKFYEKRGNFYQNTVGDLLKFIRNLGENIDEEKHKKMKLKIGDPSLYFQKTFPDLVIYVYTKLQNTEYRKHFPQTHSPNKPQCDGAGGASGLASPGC
In words: Co-immunoprecipitation of pre-miR-21 and RNase L. Format: binding. The conditions noted are these: WT 32P-pre-miR-21, inactive RNase L. The method, then: Co-Immunoprecipitation of pre-miR-2I and RNase L. Approximately 20,000 cpm of 32P 5′-end labeled WT or mutant pre-miR-21 or an RNA construct where the A-bulge was mutated to a base pair (5′-[…] UGGGCUGU-3′) was folded in 1× RNase L Assay Buffer for 1 min at 95° C. and cooled on ice for 10 min. Following cooling, β-mercaptoethanol (7 mM), ATP (50 μM), and MgCl2 (1 mM) were added to the solution. The solution was aliquoted, and compounds were incubated in solution for 15 min (1% DMSO final concentration). […] Beads were then washed with 1×PBS supplemented with 0.02% (v/v) Tween-20. Radioactive signal in the supernatant and associated with the beads was quantified by a Beckman Coulter LS6500 Liquid Scintillation Counter. Relative RNA enrichment was calculated by comparing the radioactive signal associated with beads compared to the total radioactive signal from the beads plus the supernatant.

Assay [2] concerns pre-miR-21. In words: In vitro cleavage of dually labeled pre-miR-21 with RNase L. The conditions noted are these: incubated with RNase L. Format: biochemical.
Assay [3] relates to MCF-10A cells. As to the kind of experiment: Boyden chamber invasion assay, MCF-10A with forced pre-miR-21 expression. The note with it: WT pre-miR-21 plasmid. Format: cell-based. The method, then:
The effect of the RiboTAC on a miR-21-associated invasive phenotype was next assessed. Treatment with 5 μM of 7 reduced the invasiveness of MDA-MB-231 cells, by ˜30% (p<0.05) (FIG. 4E-F). […] While forced expression of a mutant pre-miR-21 in which the Dovitinib-binding site is mutated also produced an invasive phenotype, the cells were insensitive to treatment with 7 (FIG. 12).
MCF-10A cells were first transfected with either a plasmid expressing pre-miR-21 (Addgene; catalog #21114) or a plasmid encoding a pre-miR-21 mutant (custom purchased from GenScript USA, Inc, FIG. 8) using jetPRIME (Polyplus), per the manufacturer's protocol (3.2 μg of plasmid per 60 mm dish). After transfection, cells (50,000 per insert) were seeded into the hanging inserts in serum free growth medium, with or without compound (0.1% final DMSO concentration). The assay was then completed as described for the MDA-MB-231 cells.

Assay [4] has as its target pre-miR-21. As to the kind of experiment: Binding affinity measurement by intrinsic fluorescence. The conditions noted are these: WT pre-miR-21. The method, then:
Binding Affinity Measurements. Binding assays were completed as previously described.8 Briefly, WT pre-miR-21 (5′-[…]-3′) or a mutant pre-miR-21 with the A-bulge and U-bulges replaced with base pairs (5′-[…]-3′) was folded in 1× Assay Buffer (8 mM Na2HPO4, pH 7.0, 185 mM NaCl, and 1 mM EDTA) by heating at 95° C. for 1 min followed by cooling on ice for 10 min. After cooling, BSA was added to a final concentration of 40 μg/mL. RiboTAC 7 was then added to the solution to a final concentration of 0.5 μM. The RNA solution was serial diluted with 1× Assay Buffer supplemented with 40 μg/mL BSA and 0.5 μM of 7. The solutions were incubated in the dark for 30 min at room temperature before being transferred to a black 384-well plate (Corning 4514, low-volume, non-binding) Fluorescence intensity was measured using a Tecan infinite M1000 Pro (Gain: 100) with excitation wavelength of 380 nm and emission wavelength of 425 nm. Binding affinity was calculated using Equation 1, as previously described:8
where I and I0 are the measured fluorescence intensity of compound with or without RNA, respectively, Δε is the difference between the fluorescence intensity with infinite concentration of RNA versus without RNA, [FL]0 and [RNA]0 are the concentrations of small molecule and RNA, respectively, and Kd is the dissociation constant.

Structures are written as SMILES.

For orientation: Kd means the concentration at which binding is half-saturated.

Consider `CNC(=O)[C@H](c1ccccc1)N(C)Cc1ccc(-c2cccc(-c3sccc3NC(=O)CCOCCOCCOCCC(=O)NCCN3CCN(c4ccc5nc(-c6c(N)c7c(F)cccc7[nH]c6=O)[nH]c5c4)CC3)c2)cc1` [RiboTAC 7, (S)—N-(2-(4-(2-(4-amino-5-fluoro-2-oxo-1,2-dihydroquinolin-3-yl)-1H-benzo[d]imidazol-6-yl)piperazin-1-yl)ethyl)-3-(2-(2-(3-((2-(4′-((methyl(2-(methylamino)-2-oxo-1-phenylethyl)amino)methyl)-[1,1′-biphenyl]-3-yl)thiophen-3-yl)amino)-3-oxopropoxy)ethoxy)ethoxy)propanamide], for which the “co-immunoprecipitation of RNA with RNase L” value in assay [1] was “pulled down with RNase L”. Also, the “cleavage of pre-miR-21 construct labeled with 6-FAM and BHQ” value in assay [2] is recorded as “induced dose-dependent cleavage of pre-miR-21”. Further, the “invasive phenotype induced by forced expression of pre-miR-21” value in assay [3] is recorded as “rescued”. In addition, in assay [4], binding was characterised by a dissociation constant (Kd) of 4.6 ± 2.1 µM.
